Measurements reported in patent US20040180879A1, “Novel method of treating vasomotor symptoms” (priority 2002, published 2004).
Entries after “also recorded” stand apart in the source; their conditions may differ.

Key:
[1] = tested on: morphine-dependent rat model (MD model) of hot flush; assay: morphine-dependent naloxone-induced flush (MD model) of hot flush, tail skin temperature; assay type: in vivo; settings: for effect of the combination with 5-HT2a receptor antagonist on abating naloxone-induced flush: MDL-100907 0.01 mg/kg sc + desipramine 1 mg/kg or venlafaxine 10 mg/kg sc; for effect on MDL-100907-induced pre-naloxone flush (words): given sc 40 min prior to naloxone, after MDL-100907 0.01 mg/kg (55 min prior), desipramine 1 mg/kg; for effect on MDL-100907-induced pre-naloxone flush (words) / abatement of 5-HT2a receptor antagonist-induced pre-naloxone flush: venlafaxine 10 mg/kg, 15 min pre-naloxone; for abatement of 5-HT2a receptor antagonist-induced pre-naloxone flush: given sc after MDL-100907 (0.01 mg/kg), desipramine 1.0 mg/kg, compared to MDL treated animals
[2] = desipramine 300-500 mg/day; fluoxetine 20 mg/day; cited from earlier work

Structure (SMILES): COc1cc(CC(C)N)c(OC)cc1I (centres unmarked) [DOI]
- effect of 5-HT2a receptor agonist on MDL-100907-induced flush ([1]; DOI 0.3 mg/kg sc, 15 min prior to MDL-100907 (0.01 and 0.1 mg/kg)): block; also recorded: abated; also recorded: abatement

Structure (SMILES): COc1cccc(C(O)C2CCN(CCc3ccc(F)cc3)CC2)c1OC (stereo not drawn) [MDL-100907, (+)-α-(2,3-dimethoxyphenyl)-1-[2-(4-fluorophenyl)ethyl]-4-piperidinemethanol]
- effect of the combination with 5-HT2a receptor antagonist on abating naloxone-induced flush ([1]; 15 min post-naloxone, listed as MDL-100902): enhances desipramine's effect on abating naloxone-induced flush; also recorded: enhances venlafaxine's effect on a naloxone-induced flush
- effect of 5-HT2a receptor antagonist on DOI alleviation of naloxone-induced flush ([1]; MDL-100907 (0.01 and 0.1 mg/kg sc) after DOI 0.3 mg/kg sc, maximal flush, 15 min post-naloxone): reverse the efficacy of the 5-HT2a agonist in abating the naloxone-induced flush; also recorded: reversed the DOI alleviation of the naloxone-induced flush
- effect on tail skin temperature (TST) prior to naloxone (5-HT2a antagonist-induced flush) ([1]; MDL-100907 alone, 0.01 mg/kg sc, 55 min prior to naloxone, 0.01 mg/kg): induced hot flush; also recorded: induced a significant increase in TST
- effect on naloxone-induced hot flush ([1]; MDL-100907 alone, 0.01 mg/kg sc, post-naloxone): enhanced the naloxone-induced hot flush

Structure (SMILES): CNCCCN1c2ccccc2CCc2ccccc21 [desipramine]
- effect of the combination with 5-HT2a receptor antagonist on abating naloxone-induced flush ([1]; 15 min post-naloxone): efficacy can be enhanced
- abatement of naloxone-induced flush on co-administration with 5-HT2a receptor antagonist ([1]; desipramine 1.0 mg/kg sc + MDL-100907 0.01 mg/kg sc, 15 min post-naloxone): 80%
- abatement of naloxone-induced hot flush ([1]; desipramine alone, approximate ED50 (1.0 mg/kg sc), ovariectomized morphine-dependent rats): 50%
- effect on MDL-100907-induced pre-naloxone flush (words) [1]: abates an MDL-100907-induced flush
- effect on MDL-100907-induced pre-naloxone flush (words) ([1]; listed as Desipramine): reversed
- abatement of 5-HT2a receptor antagonist-induced pre-naloxone flush [1]: 75%
- side effects of high doses alone [2]: can induce vomiting, nausea, sweating and flushes

Structure (SMILES): CNCCC(Oc1ccc(C(F)(F)F)cc1)c1ccccc1 (centres unmarked) [fluoxetine]
- side effects of high doses alone [2]: can induce vomiting, nausea, sweating and flushes

Structure (SMILES): COc1ccc(C(CN(C)C)C2(O)CCCCC2)cc1 (centres unmarked) [venlafaxine]
- effect of the combination with 5-HT2a receptor antagonist on abating naloxone-induced flush ([1]; 15 min post-naloxone): enhanced abatement of a naloxone-induced flush; also recorded: can enhance this effect
- effect on MDL-100907-induced pre-naloxone flush (words) [1]: abates an MDL-100907-induced flush
- effect on MDL-100907-induced pre-naloxone flush (words) ([1]; listed as Venlafaxine): reversed
- abatement of 5-HT2a receptor antagonist-induced pre-naloxone flush [1]: 60%
